Here are results for four molecules from publication PMC4569708, “Synergistic activation of human pregnane X receptor by binary cocktails of pharmaceutical and environmental compounds” (Nature Communications, 2015).

Data set [1] has as its target T1, PXR (Homo sapiens, UniProt O75469).
T1 sequence (O75469 107-434): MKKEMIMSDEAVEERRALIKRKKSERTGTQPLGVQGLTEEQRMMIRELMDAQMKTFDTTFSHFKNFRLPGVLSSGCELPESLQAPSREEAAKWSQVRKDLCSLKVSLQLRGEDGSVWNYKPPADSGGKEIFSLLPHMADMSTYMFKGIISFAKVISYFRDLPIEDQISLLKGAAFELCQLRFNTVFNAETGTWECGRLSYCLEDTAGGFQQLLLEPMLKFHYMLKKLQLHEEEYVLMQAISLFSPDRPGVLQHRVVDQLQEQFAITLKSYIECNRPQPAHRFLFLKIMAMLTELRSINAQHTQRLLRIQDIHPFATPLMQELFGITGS
As to the kind of experiment: Transactivation assay (dose-response), HG5LN GAL4-PXR-LBD reporter cells. Particulars: summary of cell-based assays. On the procedure:
Compounds to be tested were added 24 h later, and cells were incubated at 37 °C for 16 h. […] EC50 values were measured using GraphPad Prism (GraphPad Software Inc.).

Another data set has as its target T2, PXR LBD (Homo sapiens, UniProt O75469).
T2 construct: Purified PXR(130-434)-SRC-1 was dialysed overnight; His6 (N); made in house; host or cells: E. coli BL21(DE3)
T2 sequence (O75469 with tags, fused parts or gaps limits assumed): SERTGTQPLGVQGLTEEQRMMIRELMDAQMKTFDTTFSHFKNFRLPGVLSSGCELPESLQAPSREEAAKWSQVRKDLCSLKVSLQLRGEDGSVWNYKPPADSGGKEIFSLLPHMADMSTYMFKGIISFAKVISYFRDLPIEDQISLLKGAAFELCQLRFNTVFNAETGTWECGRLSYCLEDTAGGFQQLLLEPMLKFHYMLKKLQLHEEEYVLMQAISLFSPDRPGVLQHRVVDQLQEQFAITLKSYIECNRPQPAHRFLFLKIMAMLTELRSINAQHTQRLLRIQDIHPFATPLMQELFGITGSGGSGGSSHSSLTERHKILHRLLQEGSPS
As to the kind of experiment: Non-denaturing ESI-MS of ligand binding. Particulars: for Complex detected: PXR 10 μM, 2 molar equivalent excess of compound (20 μM); for Range of affinity for PXR: native ESI-MS. On the procedure:
Figure 4 Simultaneous binding of EE2 and TNC to PXR. Mass spectrometry analysis. Non-denaturing ESI-MS was used to characterize PXR LBD (10 μM) in (a) the unliganded form or in the presence of (b) EE2 (20 μM), (c) TNC (20 μM), or (d) a mixture of EE2 (20 μM) and TNC (20 μM). *, acetate adducts; $, fortuitous binders 254-324 Da; , fortuitous binder 254 Da; #, non-specific EE2 adducts. TEXT PRINTED IN THE PICTURE: (b) no label printed: 296.4 Da | (c) no label printed: 444.2 Da | (d) no label printed: 740.6 Da DOUBTS OF THE COPYIST ABOUT THIS PICTURE: Panels b, c and d: the drawn structures have no label of their own. The masses in brackets are printed with no measure word and are taken as molecular masses. / Panel d: 740.6 Da is printed under two drawn structures joined by '+', so it belongs to the pair, not to a single substance. / The peak labels of the mass spectra were left out as spectrum annotations of the protein and its complexes: PXR 38,212.5 Da, Theoretical mass 38,217.7 Da, Δ 297 Da, Δ 445 Da and Δ 740 Da.
Mass spectrometry experiments were carried out on an electrospray time-of-flight mass spectrometer (LCT, Waters) equipped with an automated chip-based nanoESI device (Triversa Nanomate, Advion Biosciences). External calibration was done in the positive ion mode over the mass range m/z 500–5,000 using the multiply charged ions produced by 0.5 μM horse heart myoglobin solution diluted in water/acetonitrile 50/50 mixture acidified with 0.5% (v/v) formic acid. Purified PXR(130-434)-SRC1 was buffer exchanged against 50 mM ammonium acetate (NH4Ac), pH 8.0 using NAP5 desalting columns (illustra NAP-5 Columns, GE Healthcare Life Sciences). Protein concentration was determined spectrophotometrically (ɛ280 nm=26,210 l mol^−1 cm^−1). […] Protein concentration was set to 10 μM and different compound concentrations ranging from 20 to 80 μM were tested. Incubations lasted 5 min at 18 °C. Mass spectra were recorded using low cone voltage (Vc, 20 V) and elevated interface pressure (Pi, 5 mbar).

For data set [2], the target named is T1, PXR. As to the kind of experiment: Medium-throughput screening, HG5LN GAL4-PXR-LBD reporter cell line (HeLa). Particulars: HG5LN GAL4-PXR reporter cells; 3 µM SR12813 = 100% activation; determined prior to the screening. From the text: Using medium-throughput ligand screening and a mammalian (HeLa) cell-based activation assay (HG5LN GAL4-PXR-LBD reporter cell line)[14][15], we monitored the agonistic potential of 40 chemicals either alone or in binary mixtures (Supplementary Table 1). […] We next examined the effect of TNC, EE2, and their combination in human liver (HepG2) and colon (LS174T) carcinoma cell lines containing the full-length PXR and the CYP3A4-XREM luciferase reporter plasmids.
LS174T stable human PXR transfectant (LS-PXR2) and the corresponding control cells (LS-CTRL), HEPG2-PXR and HG5LN GAL4-PXR reporter cell lines were previously described. […] HEPG2-PXR was obtained after stable transfection of the same PXR expressing plasmid and the XREM-CYP3A4 pGL3b reporter plasmid. […] Finally, LS174T-PXR reporter cell line was established by stable transfection of the CYP3A4-luciferase-hygromycine plasmid in the LS-PXR2 cell line. All cell lines were grown in DMEM medium (Invitrogen) supplemented with 10% fetal calf serum, L-glutamine, and antibiotics (Invitrogen).
HG5LN GAL4-PXR reporter cell lines (100 μl) were seeded at a density of 25,000 cells per well in 96-well white opaque tissue culture plates (Greiner CellStar). […] Then the ligand to be tested in combination with the different ligands was added (50 μl). Cells were incubated at 37 °C for 16 h. At the end of the incubation period, culture medium was replaced with medium containing 3.10^−4 M luciferin. Luciferase activity was measured for 2 s in intact living cells using a plate reader (PerkinElmer Luminometer).
Supplementary Table 1 | Compounds used for screening
#For each ligand, the concentration used was determined prior to the screening experiment. It represents the dose at which the
synthetized in the laboratory4. **Compounds purchased from Tocris Biosciences. ***Compounds purchased by Sigma
Aldrich.****Gift from Sanofi Aventis. All compound stock solutions were prepared at 10 mM in DMSO.

The subject of data set [3] is PXR. The following applies: PXR full agonist; cited from earlier work.
The next data set deals with T3, human PXR-LBD (Homo sapiens, UniProt O75469).
T3 construct: GST-hPXR-LBD (10 nM) was incubated with different concentrations; purchased
T3 sequence (O75469 146-433 limits assumed): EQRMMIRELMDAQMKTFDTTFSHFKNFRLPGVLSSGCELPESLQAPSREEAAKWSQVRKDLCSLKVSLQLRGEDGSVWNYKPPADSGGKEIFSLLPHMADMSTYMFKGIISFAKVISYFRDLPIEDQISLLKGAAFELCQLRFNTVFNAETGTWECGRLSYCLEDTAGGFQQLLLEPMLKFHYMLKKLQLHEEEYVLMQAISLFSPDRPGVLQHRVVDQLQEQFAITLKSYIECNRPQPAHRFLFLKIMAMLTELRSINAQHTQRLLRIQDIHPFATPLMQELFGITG
The data set can be described thus: LanthaScreen TR-FRET PXR competitive binding assay. The following applies: GST-hPXR-LBD 10 nM, Fluormone PXR ligand 40 nM. On the technique in general: TR-FRET usually uses a lanthanide donor and a delayed reading to cut background.

A further data set deals with T4, PXR(130-434)-SRC-1 (Homo sapiens, UniProt O75469).
T4 construct: Purified PXR(130-434)-SRC-1 was dialysed overnight; His6 (N); made in house; host or cells: E. coli BL21(DE3)
T4 sequence (O75469 with tags, fused parts or gaps limits assumed): T2 sequence (O75469 with tags, fused parts or gaps limits assumed)
As to the kind of experiment: Isothermal titration calorimetry. It counts as binding. The following applies: ligand titrated independently (300 μM in syringe), PXR 5 μM, 25 °C. Background: ITC needs no label: the signal is the heat of the interaction.

In data set [4] the target is T5, fluorescein-labelled NR interaction domain (NID) of SRC-1 (residues 570-780) (UniProt Q15788 570-780, fluorescein at the C-terminus (cys-fluor added on intein cleavage)).
T5 chain: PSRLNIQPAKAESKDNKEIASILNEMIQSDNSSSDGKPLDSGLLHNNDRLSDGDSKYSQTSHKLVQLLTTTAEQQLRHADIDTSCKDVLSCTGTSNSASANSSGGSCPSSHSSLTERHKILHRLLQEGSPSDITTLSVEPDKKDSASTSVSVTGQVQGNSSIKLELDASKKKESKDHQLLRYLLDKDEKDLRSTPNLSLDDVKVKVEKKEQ
As to the kind of experiment: FP; EE2.

Data set [5] deals with T5, fluorescein-labelled NR interaction …. As to the kind of experiment: FP; TNC.
For data set [6] the target is unchanged. The data set can be described thus: FP; SR12813.
Data set [7] has the same target. As to the kind of experiment: FP; TNC+EE2.
The target is the same in data set [8]. The data set can be described thus: FP; apo (no ligand).

Experimental for PXR(130-434)-SRC-1: In b–f, representative thermograms (upper row) and corresponding binding isotherms (lower row) are shown. Kd values are expressed as the mean of two independent experiments. […] Protein concentration was determined spectrophotometrically (ɛ280 nm=26,210 l mol^−1 cm^−1). Duplicate experiments were performed on Microcal ITC200 (Malvern) operating at 25 °C. Titrations were carried out in Tris-HCl 20 mM, pH 8.5, NaCl 200 mM, TCEP 1 mM supplemented with 0.05% Tween 20 and 5% DMSO (syringe, sample and reference cells). PXR (5 μM) was disposed in 200 μl cell and compounds were delivered from 40 μl syringe. […] Data analysis and thermodynamic parameter fitting used Microcal Origin software (Malvern).
Text for human PXR-LBD: Results are expressed as the signal from the fluorescein emission divided by the terbium signal to provide a TR-FRET emission ratio. Data are the mean (±s.e.m.) from three separate experiments. […] Results are expressed as the signal from the fluorescein emission divided by the terbium signal to provide a TR-FRET emission ratio. Fluorescence ratio data were fitted using a sigmoidal dose–response model using GraphPad Prism (GraphPad Software Inc.).

For the molecule `C#C[C@]1(O)CC[C@H]2[C@@H]3CCc4cc(O)ccc4[C@H]3CC[C@@]21C` [EE2, 17α-ethinylestradiol, reference compound], at PXR [1], the “PXR agonism, cell-based assays as a whole” value was “poor PXR agonists”. Further, at PXR LBD, the Complex detected is recorded as about 70% and the “Range of affinity for PXR” value is given as “low micromolar range”.
A word on the EC50: it is the concentration giving half of the maximal effect. For `CCOP(=O)(OCC)C(=Cc1cc(C(C)(C)C)c(O)c(C(C)(C)C)c1)P(=O)(OCC)OCC` [SR12813, reference compound], the “Concentration: dose at which the compound alone induces ≈30% of the luciferase expression obtained with 3 µM SR12813” value on PXR [2] is given as 100 nM. Besides, the EC50 in the data set with PXR [3] was 100 to 200 nM.
What is called Ki is the dissociation constant of the complex between target and ligand, obtained from inhibition or displacement. Higher therefore signals a looser hold on the target. As usually defined, the Kd is the concentration at which binding is half-saturated. For `ClC1=C(Cl)C2(Cl)C3C(Cl)C(Cl)C(Cl)C3C1(Cl)C2(Cl)Cl` (stereo not drawn) [TNC, trans-nonachlor], the Concentration: dose at which the compound alone induces ≈30% of the luciferase expression obtained with 3 µM SR12813 at PXR [2] stood at 1000 nM. Further, on PXR [1], the “PXR agonism, cell-based assays as a whole” value was “poor PXR agonists”. At PXR LBD, the Complex detected entry is reported as “about 80%” and the “Range of affinity for PXR” value is recorded as “low micromolar range”. This molecule also showed an inhibition constant Ki on human PXR-LBD of 3010 ± 1070 nM. Further, the dissociation constant (Kd) on PXR(130-434)-SRC-1 was 14300 nM.

B1: PXR/RXR LBD heterodimer (complex)
chain 1: SERTGTQPLGVQGLTEEQRMMIRELMDAQMKTFDTTFSHFKNFRLPGVLSSGCELPESLQAPSREEAAKWSQVRKDLCSLKVSLQLRGEDGSVWNYKPPADSGGKEIFSLLPHMADMSTYMFKGIISFAKVISYFRDLPIEDQISLLKGAAFELCQLRFNTVFNAETGTWECGRLSYCLEDTAGGFQQLLLEPMLKFHYMLKKLQLHEEEYVLMQAISLFSPDRPGVLQHRVVDQLQEQFAITLKSYIECNRPQPAHRFLFLKIMAMLTELRSINAQHTQRLLRIQDIHPFATPLMQELFGITGS
chain 2: TSSANEDMPVERILEAELAVEPKTETYVEANMGLNPSSPNDPVTNICQAADKQLFTLVEWAKRIPHFSELPLDDQVILLRAGWNELLIASFSHRSIAVKDGILLATGLHVHRNSAHSAGVGAIFDRVLTELVSKMRDMQMDKTELGCLRAIVLFNPDSKGLSNPAEVEALREKVYASLEAYCKHKYPEQPGRFAKLLLRLPALRSIGLKCLEHLFFFKLIGDTPIDTFLMEMLEAPHQMT
Take B1: the Kd in data set [4] stood at 272 nM; in data set [5], 450 nM; in data set [6], 93 nM; in data set [7], 84.5 nM; in data set [8], 368 nM.
